These results are taken from patent US8044211B2 (Chroma Therapeutics Ltd., priority 2006, dated 2011).

A value given as a limit tells only on which side of the number the result lay.

T1 sequence (Q16539 whole entry): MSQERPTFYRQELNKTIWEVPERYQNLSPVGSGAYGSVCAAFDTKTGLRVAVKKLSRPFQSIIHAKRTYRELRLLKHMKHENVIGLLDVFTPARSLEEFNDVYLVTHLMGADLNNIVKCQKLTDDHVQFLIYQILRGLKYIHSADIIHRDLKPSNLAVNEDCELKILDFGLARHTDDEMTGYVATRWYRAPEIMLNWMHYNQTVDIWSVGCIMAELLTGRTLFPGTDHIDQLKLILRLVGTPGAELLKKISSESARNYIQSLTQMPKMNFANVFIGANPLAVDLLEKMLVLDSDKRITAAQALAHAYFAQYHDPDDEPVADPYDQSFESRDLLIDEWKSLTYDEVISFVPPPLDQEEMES

This assay addresses T1, p38 MAP Kinase a (Homo sapiens, UniProt Q16539).
T1 construct: purchased Upstate (Dundee UK)
In words: p38 MAP Kinase activity, radiometric filter-binding assay (Upstate). As to conditions: IC50 range; ATP at or close to Km; read-out: Inhibitor activity versus p38 MAPKa. It counts as biochemical. The protocol:
The ability of compounds to inhibit p38 MAP a Kinase activity was measured in an assay performed by Upstate (Dundee UK). In a final reaction volume of 25 μL, p38 MAP Kinase a (5-10 mU) is incubated with 25 mM Tris pH 7.5, 0.002 mMEGTA, 0.33 mg/mL myelin basic protein, 10 mM MgAcetate and [g-33P-ATP] (specific activity approx. 500 cpm/pmol, concentration as required). The reaction is initiated by the addition of the MgATP mix. After incubation for 40 minutes at room temperature, the reaction is stopped by the addition of 5 μL of a 3% phosphoric acid solution. 10 μL of the reaction is then spotted onto a P30 filtermat and washed three times for 5 minutes in 75 mM phosphoric acid and once in methanol prior to drying and scintillation counting.
Duplicate data points are generated from a ⅓ log dilution series of a stock solution in DMSO. Nine dilutions steps are made from a top concentration of 10 μM, and a ‘no compound’ blank is included. The standard radiometric filter-binding assay is performed at an ATP concentration at, or close to, the Km. Data from scintillation counts are collected and subjected to free-fit analysis by Prism software. From the curve generated, the concentration giving 50% inhibition is determined and reported.
Regarding `Nc1c(C(=O)c2ccc(F)cc2F)ccc(=O)n1-c1ccc(CN[C@H](C(=O)O)c2ccccc2)cc1` [Example 72, (S)-{4-[6-Amino-5-(2,4-difluorobenzoyl)-2-oxo-2H-pyridin-1-yl]benzylamino}phenylacetic acid], the IC50 was less than 100 nM. As to `Nc1c(C(=O)c2ccc(F)cc2F)ccc(=O)n1-c1ccc(CN[C@@H](Cc2ccccc2)C(=O)O)cc1` [Example 73, (S)-2-{4-[6-Amino-5-(2,4-difluorobenzoyl)-2-oxo-2H-pyridin-1-yl]benzylamino}-3-phenylpropionic acid], the IC50 was less than 100 nM.

Take `CC(C)C[C@H](NCc1ccc(-n2c(N)c(C(=O)c3ccc(F)cc3F)ccc2=O)cc1)C(=O)O` [Example 74, (S)-2-{4-[6-Amino-5-(2,4-difluorobenzoyl)-2-oxo-2H-pyridin-1-yl]benzylamino}-4-methylpentanoic acid]: the IC50 was less than 100 nM. On to `Nc1c(C(=O)c2ccc(F)cc2)ccc(=O)n1-c1ccc(CN[C@H](C(=O)O)c2ccccc2)cc1` [Example 75, (S)-{4-[6-Amino-5-(4-fluorobenzoyl)-2-oxo-2H-pyridin-1-yl]benzylamino}phenylacetic acid], for which the IC50 lay in the range of 100 to 1000 nM. `Cc1cc(C(=O)c2ccc(=O)n(-c3ccc(CN[C@H](C(=O)O)c4ccccc4)cc3)c2N)ccc1F` [Example 76, (S)-{4-[6-Amino-5-(3-methyl-4-fluorobenzoyl)-2-oxo-2H-pyridin-1-yl]benzylamino}phenylacetic acid]: the IC50 was 100 to 1000 nM.

With `Nc1c(C(=O)c2ccc(F)cc2)ccc(=O)n1-c1ccc(CN[C@@H](Cc2ccccc2)C(=O)O)cc1` [Example 78, (S)-2-{4-[6-Amino-5-(4-fluorobenzoyl)-2-oxo-2H-pyridin-1-yl]benzylamino}-3-phenylpropionic acid], the IC50 fell in the range of 100 to 1000 nM. As to `CC(C)C[C@H](NCc1ccc(-n2c(N)c(C(=O)c3ccc(F)cc3)ccc2=O)cc1)C(=O)O` [Example 79, (S)-2-{4-[6-Amino-5-(4-fluorobenzoyl)-2-oxo-2H-pyridin-1-yl]benzylamino}-4-methylpentanoic acid], the IC50 lay within 100 to 1000 nM. With `Cc1cc(C(=O)c2ccc(=O)n(-c3ccc(CN[C@@H](Cc4ccccc4)C(=O)O)cc3)c2N)ccc1F` [Example 80, (S)-2-{4-[6-Amino-5-(3-methyl-4-fluorobenzoyl)-2-oxo-2H-pyridin-1-yl]benzylamino}-3-phenylpropionic acid], the IC50 is less than 100 nM.

Regarding `Cc1cc(C(=O)c2ccc(=O)n(-c3ccc(CN[C@@H](CC(C)C)C(=O)O)cc3)c2N)ccc1F` [Example 81, (S)-2-{4-[6-Amino-5-(3-Methyl-4-fluorobenzoyl)-2-oxo-2H-pyridin-1-yl]benzylamino}-4-methylpentanoic acid], the IC50 lay within 100 to 1000 nM. With `Nc1c(C(=O)c2ccc(F)cc2)ccc(=O)n1-c1ccc(OCCCN[C@@H](Cc2ccccc2)C(=O)O)cc1` [Example 82], the IC50 was less than 100 nM. Regarding `Cc1cc(C(=O)c2ccc(=O)n(-c3ccc(OCCCN[C@@H](Cc4ccccc4)C(=O)O)cc3)c2N)ccc1F` [Example 83, (S)-2-(3-{4-[6-Amino-5-(3-methyl-4-fluorobenzoyl)-2-oxo-2H-pyridin-1-yl]phenoxy}propylamino)-3-phenyl propionic acid], the IC50 is less than 100 nM.

As for `Nc1c(C(=O)c2ccc(F)cc2F)ccc(=O)n1-c1ccc(OCCCN[C@H](C(=O)O)c2ccccc2)cc1` [Example 84, (S)-(3-{4-[6-Amino-5-(2,4-difluorobenzoyl)-2-oxo-2H-pyridin-1-yl]-phenoxy}propylamino)phenyl acetic acid], the IC50 is less than 100 nM. For the molecule `CC(C)C[C@H](NCCCOc1ccc(-n2c(N)c(C(=O)c3ccc(F)cc3)ccc2=O)cc1)C(=O)O` [Example 85, (S)-2-(3-{4-[6-Amino-5-(4-fluorobenzoyl)-2-oxo-2H-pyridin-1-yl]phenoxy}propylamino)-4-methylpentanoic acid], the IC50 was less than 100 nM. With `Nc1c(C(=O)c2ccc(F)cc2F)ccc(=O)n1-c1ccc(OCCCN[C@@H](Cc2ccccc2)C(=O)O)cc1` [Example 86, (S)-2-(3-{4-[6-Amino-5-(2,4-difluorobenzoyl)-2-oxo-2H-pyridin-1-yl]phenoxy}propylamino)-3-phenyl propionic acid], the IC50 is more than 1000 nM.

For `Cc1cc(C(=O)c2ccc(=O)n(-c3ccc(OCCCN[C@H](C(=O)O)c4ccccc4)cc3)c2N)ccc1F` [Example 87], the IC50 is 100 to 1000 nM.

As to `Cc1cc(C(=O)c2ccc(=O)n(-c3ccc(OCCCN[C@@H](CC(C)C)C(=O)O)cc3)c2N)ccc1F` [Example 88, (S)-2-(3-{4-[6-Amino-5-(4-fluoro-3-methylbenzoyl)-2-oxo-2H-pyridin-1-yl]phenoxy}propylamino)-4-methylpentanoic acid], the IC50 was less than 100 nM. As for `Nc1c(C(=O)c2ccc(F)cc2)ccc(=O)n1-c1c(F)cc(OCCCN[C@H](C(=O)O)c2ccccc2)cc1F` [Example 89], the IC50 was less than 100 nM.

In the case of `Nc1c(C(=O)c2ccc(F)cc2)ccc(=O)n1-c1c(F)cc(OCCCN[C@@H](Cc2ccccc2)C(=O)O)cc1F` [Example 90], the IC50 was less than 100 nM. As to `CC(C)C[C@H](NCCCOc1cc(F)c(-n2c(N)c(C(=O)c3ccc(F)cc3)ccc2=O)c(F)c1)C(=O)O` [Example 91], the IC50 is less than 100 nM. Regarding `Nc1c(C(=O)c2ccc(F)cc2)ccc(=O)n1-c1c(F)cc(CN[C@@H](Cc2ccccc2)C(=O)O)cc1F` [Example 92], the IC50 is less than 100 nM. For the molecule `Cc1cc(C(=O)c2ccc(=O)n(-c3c(F)cc(OCCCN[C@@H](Cc4ccccc4)C(=O)O)cc3F)c2N)ccc1F` [Example 93, (S)-2-(3-{4-[6-Amino-5-(4-fluoro-3-methylbenzoyl)-2-oxo-2H-pyridin-1-yl]-3,5-difluorophenoxy}propylamino)-3-phenylpropionic acid], the IC50 was less than 100 nM.

`Nc1c(C(=O)c2ccc(F)cc2)ccc(=O)n1-c1ccc(OCCCN[C@H](C(=O)O)c2ccccc2)cc1` [Example 94, (S)-(3-{4-[6-Amino-5-(4-fluorobenzoyl)-2-oxo-2H-pyridin-1-yl]-Phenoxy}propylamino)phenylacetic acid]: the IC50 is less than 100 nM. Take `Nc1c(C(=O)c2ccc(F)cc2F)ccc(=O)n1-c1c(F)cc(OCCCN[C@H](C(=O)O)c2ccccc2)cc1F` [Example 95, (S)-(3-{4-[6-Amino-5-(2,4-difluorobenzoyl)-2-oxo-2H-pyridin-1-yl]-3,5-difluorophenoxy}propylamino)phenyl acetic acid]: the IC50 is less than 100 nM.

Consider `CC(C)C[C@H](NCCCOc1ccc(-n2c(N)c(C(=O)c3ccc(F)cc3F)ccc2=O)cc1)C(=O)O` [Example 96, (S)-2-(3-{4-[6-Amino-5-(2,4-difluorobenzoyl)-2-oxo-2H-pyridin-1-yl]phenoxy}propylamino)-4-methyl pentanoic acid], for which the IC50 is less than 100 nM.

For `CC(C)C[C@H](NCCCOc1cc(F)c(-n2c(N)c(C(=O)c3ccc(F)cc3F)ccc2=O)c(F)c1)C(=O)O` [Example 97, (S)-2-(3-{4-[6-Amino-5-(2,4-difluorobenzoyl)-2-oxo-2H-pyridin-1-yl]-3,5-difluorophenoxy}propylamino)-4-methyl pentanoic acid], the IC50 is less than 100 nM.

With `Cc1cc(C(=O)c2ccc(=O)n(-c3c(F)cc(OCCCN[C@@H](CC(C)C)C(=O)O)cc3F)c2N)ccc1F` [Example 98, (S)-2-(3-{4-[6-Amino-5-(4-fluoro-3-methylbenzoyl)-2-oxo-2H-pyridin-1-yl]-3,5-difluorophenoxy}propylamino)-4-methylpentanoic acid], the IC50 was less than 100 nM.

On to `Cc1cc(C(=O)c2ccc(=O)n(-c3c(F)cc(OCCCN[C@H](C(=O)O)c4ccccc4)cc3F)c2N)ccc1F` [Example 99, (S)-(3-{4-[6-Amino-5-(4-fluoro-3-methylbenzoyl)-2-oxo-2H-pyridin-1-yl]-3,5-difluorophenoxy}propylamino)phenylacetic acid], for which the IC50 was less than 100 nM. Consider `Nc1c(C(=O)c2ccc(F)cc2F)ccc(=O)n1-c1c(F)cc(OCCCN[C@@H](Cc2ccccc2)C(=O)O)cc1F` [Example 100, (S)-2-(3-{4-[6-Amino-5-(2,4-difluorobenzoyl)-2-oxo-2H-pyridin-1-yl]-3,5-difluorophenoxy}-propylamino)-3-phenyl propionic acid], for which the IC50 was less than 100 nM. Regarding `CC(C)C[C@H](NCc1cc(F)c(-n2c(N)c(C(=O)c3ccc(F)cc3F)ccc2=O)c(F)c1)C(=O)O` [Example 101], the IC50 is less than 100 nM. Consider `Nc1c(C(=O)c2ccc(F)cc2)ccc(=O)n1-c1c(F)cc(OC2CCC(N[C@@H](Cc3ccccc3)C(=O)O)CC2)cc1F` (some centres unmarked) [Example 102], for which the IC50 is less than 100 nM. For `Nc1c(C(=O)c2ccc(F)cc2)ccc(=O)n1-c1c(F)cc(OC2CCC(N[C@H](C(=O)O)c3ccccc3)CC2)cc1F` (stereo partly drawn) [Example 103, (2S)-[(4-{4-[6-amino-5-(4-fluorobenzoyl)-2-oxopyridin-1(2H)-yl]-3,5-difluorophenoxy}cyclohexyl)amino](phenyl)acetic acid] the value was less than 100 nM. Under `CC(C)C[C@H](NC1CCC(Oc2cc(F)c(-n3c(N)c(C(=O)c4ccc(F)cc4)ccc3=O)c(F)c2)CC1)C(=O)O` (stereo partly drawn) [Example 104, N-(4-{4-[6-amino-5-(4-fluorobenzoyl)-2-oxopyridin-1(2H)-yl]-3,5-difluorophenoxy}cyclohexyl)-L-leucine] stands less than 100 nM.
